Data from PubChem BioAssay (NCI).
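These data come from cells grown in 96-well plates and exposed to compound for 48 hours at five concentrations. GI50 is the concentration that inhibits growth by half. TGI marks complete inhibition of growth.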

How the values were obtained:
Test in all cases: NCI tumour cell line growth inhibition, 48 h
K-562 leukemia = system: K-562 leukemia
RPMI-8226 leukemia = system: RPMI-8226 leukemia
SK-MEL-2 melanoma = system: SK-MEL-2 melanoma
OVCAR-3 ovarian = system: OVCAR-3 ovarian
A549 NSCLC = system: A549 NSCLC
UACC-257 melanoma = system: UACC-257 melanoma
SK-OV-3 ovarian = system: SK-OV-3 ovarian
EKVX NSCLC = system: EKVX NSCLC
RXF 393 renal = system: RXF 393 renal
OVCAR-4 ovarian = system: OVCAR-4 ovarian
MALME-3M melanoma = system: MALME-3M melanoma
M14 melanoma = system: M14 melanoma
SF-295 CNS = system: SF-295 CNS
SR leukemia = system: SR leukemia
OVCAR-8 ovarian = system: OVCAR-8 ovarian
TK-10 renal = system: TK-10 renal
SK-MEL-5 melanoma = system: SK-MEL-5 melanoma
MDA-MB-435 = system: MDA-MB-435
SW-620 colon = system: SW-620 colon
SF-268 CNS = system: SF-268 CNS
UO-31 renal = system: UO-31 renal
MCF7 breast = system: MCF7 breast
HOP-62 NSCLC = system: HOP-62 NSCLC
HL-60(TB) leukemia = system: HL-60(TB) leukemia
SF-539 CNS = system: SF-539 CNS
KM12 colon = system: KM12 colon
NCI-H460 lung = system: NCI-H460 lung
UACC-62 melanoma = system: UACC-62 melanoma
NCI-H522 lung = system: NCI-H522 lung
MOLT-4 leukemia = system: MOLT-4 leukemia
CAKI-1 renal = system: CAKI-1 renal
NCI-H226 lung = system: NCI-H226 lung
786-0 renal = system: 786-0 renal
U251 CNS = system: U251 CNS
HT29 colon = system: HT29 colon
HS 578T breast = system: HS 578T breast
HCT-15 colon = system: HCT-15 colon
NCI/ADR-RES ovarian = system: NCI/ADR-RES ovarian
OVCAR-5 ovarian = system: OVCAR-5 ovarian
ACHN renal = system: ACHN renal
PC-3 prostate = system: PC-3 prostate
MDA-MB-231 breast = system: MDA-MB-231 breast
HOP-92 NSCLC = system: HOP-92 NSCLC
LOX IMVI melanoma = system: LOX IMVI melanoma
NCI-H23 lung = system: NCI-H23 lung
COLO 205 colon = system: COLO 205 colon
CCRF-CEM leukemia = system: CCRF-CEM leukemia
SK-MEL-28 melanoma = system: SK-MEL-28 melanoma
SNB-19 CNS = system: SNB-19 CNS
HCC-2998 colon = system: HCC-2998 colon
T-47D breast = system: T-47D breast
SNB-75 CNS = system: SNB-75 CNS
SN12C renal = system: SN12C renal
IGROV1 ovarian = system: IGROV1 ovarian
HCT-116 colon = system: HCT-116 colon
A498 renal = system: A498 renal
BT-549 breast = system: BT-549 breast
DU-145 prostate = system: DU-145 prostate

## CNC(=O)c1c(NC(=O)c2ccc(C(F)(F)F)cc2)sc2c1CCC(=O)C2
K-562 leukemia
  GI50: 193 nM
RPMI-8226 leukemia
  GI50: 272 nM
  TGI: 884 nM
SK-MEL-2 melanoma
  GI50: 1360 nM
  TGI: 5460 nM
OVCAR-3 ovarian
  GI50: 812 nM
  TGI: 3290 nM
A549 NSCLC
  GI50: 1020 nM
  TGI: 8490 nM
UACC-257 melanoma
  GI50: 1730 nM
  TGI: 6220 nM
SK-OV-3 ovarian
  GI50: 2260 nM
  TGI: 7200 nM
EKVX NSCLC
  GI50: 890 nM
  TGI: 6050 nM
RXF 393 renal
  GI50: 410 nM
  TGI: 2150 nM
OVCAR-4 ovarian
  GI50: 604 nM
  TGI: 1920 nM
MALME-3M melanoma
  GI50: 1110 nM
  TGI: 3880 nM
M14 melanoma
  GI50: 508 nM
  TGI: 3770 nM
SF-295 CNS
  GI50: 821 nM
  TGI: 2970 nM
SR leukemia
  GI50: 356 nM
  TGI: > 100000 nM
OVCAR-8 ovarian
  GI50: 466 nM
  TGI: > 37100 nM
TK-10 renal
  GI50: 815 nM
  TGI: 21200 nM
SK-MEL-5 melanoma
  GI50: 1110 nM
  TGI: 2580 nM
MDA-MB-435
  GI50: 818 nM
  TGI: 3550 nM
SW-620 colon
  GI50: 235 nM
  TGI: 1640 nM
SF-268 CNS
  GI50: 995 nM
  TGI: > 37900 nM
UO-31 renal
  GI50: 302 nM
  TGI: 1400 nM
MCF7 breast
  GI50: 837 nM
  TGI: 4130 nM
HOP-62 NSCLC
  GI50: 2420 nM
  TGI: 10900 nM
HL-60(TB) leukemia
  GI50: 363 nM
  TGI: 2090 nM
SF-539 CNS
  GI50: 386 nM
  TGI: 1720 nM
KM12 colon
  GI50: 668 nM
  TGI: 2460 nM
NCI-H460 lung
  GI50: 890 nM
  TGI: 4190 nM
UACC-62 melanoma
  GI50: 617 nM
  TGI: 2230 nM
NCI-H522 lung
  GI50: 251 nM
  TGI: 1920 nM
MOLT-4 leukemia
  GI50: 470 nM
  TGI: 4010 nM
CAKI-1 renal
  GI50: 388 nM
  TGI: 1880 nM
NCI-H226 lung
  GI50: 1820 nM
  TGI: 5350 nM
786-0 renal
  GI50: 415 nM
  TGI: 15100 nM
U251 CNS
  GI50: 314 nM
  TGI: 2060 nM
HT29 colon
  GI50: 555 nM
  TGI: 5270 nM
HS 578T breast
  GI50: 774 nM
  TGI: 13200 nM
HCT-15 colon
  GI50: 239 nM
  TGI: 1760 nM
NCI/ADR-RES ovarian
  GI50: 662 nM
  TGI: 3740 nM
OVCAR-5 ovarian
  GI50: 607 nM
  TGI: 2760 nM
ACHN renal
  GI50: 322 nM
  TGI: 1900 nM
PC-3 prostate
  GI50: 186 nM
  TGI: 1350 nM
MDA-MB-231 breast
  GI50: 529 nM
  TGI: 2510 nM
HOP-92 NSCLC
  GI50: 256 nM
  TGI: 2150 nM
LOX IMVI melanoma
  GI50: 361 nM
  TGI: 2270 nM
NCI-H23 lung
  GI50: 418 nM
  TGI: 5900 nM
COLO 205 colon
  GI50: 603 nM
  TGI: 3100 nM
CCRF-CEM leukemia
  GI50: 155 nM
SK-MEL-28 melanoma
  GI50: 864 nM
  TGI: 3670 nM
SNB-19 CNS
  GI50: 735 nM
  TGI: > 65900 nM
HCC-2998 colon
  GI50: 1090 nM
  TGI: 4120 nM
T-47D breast
  GI50: 305 nM
  TGI: 2380 nM
SNB-75 CNS
  GI50: 714 nM
  TGI: 3950 nM
SN12C renal
  GI50: 690 nM
  TGI: 24100 nM
IGROV1 ovarian
  GI50: 471 nM
  TGI: 4890 nM
HCT-116 colon
  GI50: 188 nM
  TGI: 1400 nM
A498 renal
  GI50: 2330 nM
  TGI: 7070 nM
BT-549 breast
  GI50: 366 nM
  TGI: 3720 nM
DU-145 prostate
  GI50: 4180 nM
  TGI: > 100000 nM
